Consider 35 compounds from a melting point compilation (Tetko et al.; mined from patent text by program, amines drawn as free bases though some values may be those of a salt).

The structures appear in SMILES notation.

As to `COc1cc(O)ccc1/C=C/c1ccc(O)cc1`, the melting point is 192 to 194 °C. For the compound `CCCC(=Cc1cccc([N+](=O)[O-])c1)[N+](=O)[O-]`, the melting point lay within 45 to 47 °C. Take `Cc1c(-c2ccc(O)cc2)n(Cc2ccc(OCCN3CCC(O)CC3)cc2)c2ccc(O)cc12`: the melting point fell in the range of 80 to 90 °C. Compound `CCCOc1ccccc1-c1nc2nc(N(C)C)ncc2c(=O)[nH]1` registered a melting point of 178 °C.

Regarding `Nc1cccc(-c2ccc3nnn(Cc4ccc5ncccc5c4)c3n2)c1`, the melting point lay within 187 to 189 °C.

Compound `CCOC(=O)c1ccc(Cc2ccccc2)cn1` returned a melting point of 109 to 111 °C.

With `COc1cc(OC)c(-c2cccs2)cc1C=CC(=O)c1ccc(S(=O)(=O)Nc2nnn[nH]2)cc1`, the melting point fell in the range of 185 to 186 °C. `CC(C)(C)OC(=O)N1CC2CC(CN(CC(O)COc3ccc(C(C)(C)C)cc3)C2)C1` (stereo not given) gave a melting point of 75 to 77 °C. The compound `CNC(c1ccnc(F)c1)C(O)c1cccc(C(F)(F)F)c1` (stereo not given) displayed a melting point of 99 to 102 °C. `CCOC(=O)CCC(=O)N[C@@H](CC(C)C)C(=O)N[C@@H](C(C)C)[C@@H](O)c1c(-c2ccccc2)c1=O` gave a melting point of 111 to 112 °C.

On to `Cc1[nH]c(=O)[nH]c1C(=O)c1ccc(N2CCOCC2)cc1`, for which the melting point was in the range of 283 to 286 °C. With `CN1CC(c2cccc(Cl)c2)C(=O)C(c2cccc(Cl)c2)C1` (stereo not given) the figure was 140 °C; with `N=C(Nc1ccc(Cl)cc1)Nc1ncccc1OCc1ccccc1`, 170 to 172 °C. Turning to `Fc1ccc2c(CCCN(c3ccncc3)c3csc4cccc(Cl)c34)noc2c1`, the melting point is 135 to 136 °C.

Turning to `COc1nc(Nc2ccc(F)cc2F)c(C(=O)O)cc1F`, the melting point lay within 237 to 240 °C. In the case of `COc1ccc2c(c1)C=C(CN1CCC3(CC1)C(=O)NCN3c1ccccc1)CC2`, the melting point is 184 to 186 °C. With `Cc1ccc(C(=O)Nc2ccc(CN(C)C)c(C(F)(F)F)c2)cc1-c1ccc2cnncc2c1` the figure was 156 to 157 °C. On to `Nc1ccnn1-c1cccc(C(F)(F)F)c1`, for which the melting point was in the range of 77 to 79 °C.

Consider `COc1ccccc1SCC1NCCS1` (stereo not given), for which the melting point lay within 111 to 112 °C.

Compound `CCCCCCCCCCCCC(C)CNc1cc(C)c([N+](=O)[O-])cc1C(=O)O` (stereo not given) displayed a melting point of 98 to 100 °C. Take `O=C(Nc1ccc2cc(CN3CCCC3)cnc2c1)N1CCC(c2ccc(F)cc2)CC1`: the melting point was in the range of 239 to 241 °C. Turning to `COC(=O)C[C@H]1[C@H](NC(=O)OC(C)(C)C)CCN1C(=O)OCc1ccccc1` (relative stereo), the melting point was in the range of 73 to 74 °C. Compound `CCOC(=O)CC(=O)CCCn1cncn1` yielded a melting point of 114 to 116 °C. For `CC(CS)C(=O)NC(CCCNC(=N)N)C(=O)O` (stereo not given), the melting point turned out to be 100 °C. Compound `CN1CCCCC1COC(=O)c1cccc(NC(=O)C(CS)Cc2ccccc2)c1` (stereo not given) gave a melting point of 68 to 69 °C. `Cc1c(Cc2cccnc2)sc2ccc(C(N)=O)cc12` had a melting point of 194 to 195 °C.

As to `CC(n1cncn1)C(O)(COc1ccc(Cl)cc1)C(C)(C)C` (stereo not given), the melting point lay in the range of 80 to 104 °C.

As for `Cc1cc2cnn(CCO)c2cc1Nc1nnc2n1[C@H](c1ccc(F)cc1)COC2`, the melting point lay in the range of 215 to 217 °C. Compound `CC(C)(C)OC(=O)N1C(=O)O[C@@H](c2ccc(F)cc2)[C@H]1Cc1ccc(C(F)(F)F)o1` (racemic) came in with a melting point of 134 to 135 °C. `CSC1=Nc2ccccc2C2=NCC(CBr)N12` (stereo not given) gave a melting point of 162 to 163 °C. Next, `COc1cc2sc(C=O)cc2c(Cl)c1OC`: 164 to 165 °C. With `CCOC(=O)c1c[nH]c2nc(N3CCN(C(C)=O)CC3)c(F)cc2c1=O`, the melting point lay within 290 to 295 °C.

As to `Cn1cc(CC(=O)O)c2cc(Br)ccc21`, the melting point was 192 to 194 °C. `CCOC(=O)c1ccc(OCCCCCCCCc2cc(C)no2)cc1` had a melting point of 49 °C.

Take `CCN(c1cc(C(=O)OC)c(O)c2ncc(Cc3ccc(F)cc3)cc12)S(C)(=O)=O`: the melting point was in the range of 149 to 150 °C.

Broadly, the melting point is the temperature, or range, at which the solid turns liquid.
